In ChEMBL document CHEMBL3351720, “Design, synthesis and evaluation of benzoisothiazolones as selective inhibitors of PHOSPHO1” (Bioorg Med Chem Lett, 2014):

Assays:
[1] = target: T1, Phosphomannomutase 2 (Homo sapiens, UniProt O15305); test: Inhibition of PMM2 (unknown origin)
T1 sequence (O15305 whole entry): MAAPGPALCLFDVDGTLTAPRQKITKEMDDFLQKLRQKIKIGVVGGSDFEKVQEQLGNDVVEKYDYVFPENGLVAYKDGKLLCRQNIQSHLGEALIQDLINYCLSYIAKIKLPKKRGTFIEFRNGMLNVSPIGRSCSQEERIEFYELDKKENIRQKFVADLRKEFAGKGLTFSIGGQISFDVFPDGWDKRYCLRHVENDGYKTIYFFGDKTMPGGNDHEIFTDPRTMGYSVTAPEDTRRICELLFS

[2] = target: T2, Phosphoethanolamine/phosphocholine phosphatase (Homo sapiens, UniProt Q8TCT1); test: Inhibition of PHOSPHO1 phosphoethanolamine activity (unknown origin) assessed as amount of inorganic phosphate release after 30 mins
T2 sequence (Q8TCT1 whole entry): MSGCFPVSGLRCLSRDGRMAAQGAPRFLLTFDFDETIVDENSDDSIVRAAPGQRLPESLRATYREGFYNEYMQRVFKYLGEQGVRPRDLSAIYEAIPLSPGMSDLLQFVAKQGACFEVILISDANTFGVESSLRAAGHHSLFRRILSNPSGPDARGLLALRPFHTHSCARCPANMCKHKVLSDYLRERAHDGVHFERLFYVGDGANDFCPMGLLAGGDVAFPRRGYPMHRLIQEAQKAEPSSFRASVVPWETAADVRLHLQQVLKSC

[3] = target: T3, Mannose-6-phosphate isomerase (Homo sapiens, UniProt P34949); test: Inhibition of phosphomannose isomerase (unknown origin)
T3 sequence (P34949 whole entry): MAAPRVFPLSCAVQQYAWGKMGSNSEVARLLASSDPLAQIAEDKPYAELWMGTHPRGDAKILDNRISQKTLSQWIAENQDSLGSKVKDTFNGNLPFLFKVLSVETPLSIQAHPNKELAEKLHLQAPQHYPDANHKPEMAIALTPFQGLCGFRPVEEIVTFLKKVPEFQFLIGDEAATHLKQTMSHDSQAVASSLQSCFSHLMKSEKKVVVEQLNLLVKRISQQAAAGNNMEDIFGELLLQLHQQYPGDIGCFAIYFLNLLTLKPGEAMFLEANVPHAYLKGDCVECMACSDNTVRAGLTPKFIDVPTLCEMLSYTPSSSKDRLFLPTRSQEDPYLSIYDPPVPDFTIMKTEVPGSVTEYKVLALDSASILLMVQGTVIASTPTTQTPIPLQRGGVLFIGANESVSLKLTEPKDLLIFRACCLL

Row | Compound | IC50 [1] [µM] | IC50 [2] [µM] | IC50 [3] [µM]
1 | Cc1cccc(-n2sc3ccccc3c2=O)c1 | > 20 | – | –
2 | Cc1cccc(-n2sc3cc(F)ccc3c2=O)c1C | > 20 | 4.7 | 9.9
3 | O=c1c2ccc(F)cc2sn1-c1ccccc1 | > 50 | 0.79 | 1.3
4 | COc1ccc(-n2sc3cc(F)ccc3c2=O)cc1 | > 10 | 6.7 | –
5 | O=c1c2ccccc2sn1-c1ccc(Cl)c(S(=O)(=O)N2CCOCC2)c1 | 63 | – | –
6 | CCN(CC)S(=O)(=O)c1cccc(-n2sc3ccccc3c2=O)c1 | > 100 | – | > 50
7 | CN(C)c1ccc(-n2sc3ccccc3c2=O)cc1 | > 30 | – | 8.4
8 | CCOC(=O)c1ccc(-n2sc3ccccc3c2=O)cc1 | > 50 | – | 23
9 | Cc1ccc(C)c(-n2sc3cc(F)ccc3c2=O)c1 | – | 3.3 | –
10 | O=c1c2ccccc2sn1-c1ccc(F)c(Cl)c1 | > 100 | – | > 50
11 | O=c1c2ccc(F)cc2sn1-c1ccc(F)cc1 | > 50 | > 10 | 3.6
